Measurements reported in PubChem BioAssay AID328 (DTP/NCI, 2004).
Where “and” joins values, the source holds several entries; their conditions need not be identical. Equal values may be shown once. Inconclusive results and toxic doses are left out.

System: BDF1 mice, P388 leukemia ip, median survival T/C
Assay: NCI In Vivo Anticancer Drug Screen. Data for tumor model P388 Leukemia (intraperitoneal) in B6D2F1 (BDF1) mice
Conditions: endpoint: median survival time, higher = longer survival
Summary of the method: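 Vehicle-dosed animals serve as the reference; survival of compound-dosed, tumour-implanted mice is divided by it.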

[1] = dose: 100.0 mg/kg/injection, schedule: Q04DX003 (ip), vehicle: saline with Tween-80
[2] = dose: 200.0 mg/kg/injection, schedule: Q04DX003 (ip), vehicle: saline with Tween-80
[3] = dose: 400.0 mg/kg/injection, schedule: Q04DX003 (ip), vehicle: saline with Tween-80
[4] = dose: 12.5 mg/kg/injection, schedule: Q01DX009 (ip), vehicle: Klucel (hydroxypropylcellulose) (HPC)
[5] = dose: 25.0 mg/kg/injection, schedule: Q01DX009 (ip), vehicle: saline
[6] = dose: 50.0 mg/kg/injection, schedule: Q04DX003 (ip), vehicle: saline
[7] = dose: 100.0 mg/kg/injection, schedule: Q04DX003 (ip), vehicle: saline
[8] = dose: 25.0 mg/kg/injection, schedule: Q04DX003 (ip), vehicle: saline
[9] = dose: 50.0 mg/kg/injection, schedule: Q01DX009 (ip), vehicle: saline with Tween-80
[10] = dose: 100.0 mg/kg/injection, schedule: Q01DX009 (ip), vehicle: saline with Tween-80
[11] = dose: 200.0 mg/kg/injection, schedule: Q01DX009 (ip), vehicle: saline with Tween-80

NS(=O)(=O)c1ccc(NC(=O)/C=C/C(=O)O)cc1
T/C [1]: 100 % of control | T/C [2]: 100 % of control | T/C [3]: 95 % of control

O=NN(CCCl)C(=O)NC1CCCCC1
T/C (dose: 2.4 mg/kg/injection, schedule: Q01DX009 (ip), vehicle: Klucel (hydroxypropylcellulose) (HPC)): 116 % of control | T/C (dose: 3.6 mg/kg/injection, schedule: Q01DX009 (ip), vehicle: Klucel (hydroxypropylcellulose) (HPC)): 164 % of control | T/C (dose: 4.0 mg/kg/injection, schedule: Q01DX009 (ip), vehicle: saline with Tween-80): 113 % of control | T/C (dose: 8.0 mg/kg/injection, schedule: Q01DX009 (ip), vehicle: saline with Tween-80): 229 % of control | T/C [4]: 153 % of control | T/C (dose: 12.5 mg/kg/injection, schedule: Q01DX009 (ip), vehicle: saline): 178 % of control | T/C (dose: 16.0 mg/kg/injection, schedule: Q01DX009 (ip), vehicle: Klucel (hydroxypropylcellulose) (HPC)): 249 % of control | T/C (dose: 16.0 mg/kg/injection, schedule: Q01DX009 (ip), vehicle: saline with Tween-80): 283 % of control | T/C (dose: 25.0 mg/kg/injection, schedule: Q01DX001 (ip), vehicle: Klucel (hydroxypropylcellulose) (HPC)): 220 % of control | T/C [5]: 228 % of control | T/C (dose: 30.0 mg/kg/injection, schedule: Q01DX001 (ip), vehicle: saline): 103 % of control | T/C (dose: 32.0 mg/kg/injection, schedule: Q01DX009 (ip), vehicle: saline with Tween-80): 179 % of control | T/C (dose: 35.0 mg/kg/injection, schedule: Q01DX009 (ip), vehicle: Klucel (hydroxypropylcellulose) (HPC)): 103 % of control | T/C (dose: 40.0 mg/kg/injection, schedule: Q01DX001 (ip), vehicle: saline): 548 % of control and 183 % of control | T/C (dose: 50.0 mg/kg/injection, schedule: Q01DX001 (ip), vehicle: Klucel (hydroxypropylcellulose) (HPC)): 113 % of control | T/C (dose: 50.0 mg/kg/injection, schedule: Q01DX001 (ip), vehicle: saline): 174 % of control | T/C (dose: 60.0 mg/kg/injection, schedule: Q01DX001 (oral), vehicle: carboxymethylcellulose (CMC)): 526 % of control and 166 % of control | T/C (dose: 64.0 mg/kg/injection, schedule: Q01DX009 (ip), vehicle: saline with Tween-80): 88 % of control | T/C (dose: 70.0 mg/kg/injection, schedule: Q01DX001 (ip), vehicle: saline): 256 % of control | T/C (dose: 90.0 mg/kg/injection, schedule: Q01DX001 (oral), vehicle: carboxymethylcellulose (CMC)): 210 % of control and 219 % of control | T/C (dose: 100.0 mg/kg/injection, schedule: Q01DX001 (ip), vehicle: carboxymethylcellulose (CMC)): 219 % of control | T/C (dose: 135.0 mg/kg/injection, schedule: Q01DX001 (oral), vehicle: carboxymethylcellulose (CMC)): 173 % of control | T/C (dose: 150.0 mg/kg/injection, schedule: Q01DX001 (ip), vehicle: carboxymethylcellulose (CMC)): 526 % of control | T/C (dose: 200.0 mg/kg/injection, schedule: Q01DX001 (oral), vehicle: carboxymethylcellulose (CMC)): 236 % of control

NC1(CO)COC(c2ccccc2)OC1 (configuration not stated)
T/C [5]: 100 % of control and 105 % of control | T/C (dose: 50.0 mg/kg/injection, schedule: Q01DX009 (ip), vehicle: saline): 105 % of control and 118 % of control | T/C [6]: 97 % of control and 98 % of control and 109 % of control | T/C (dose: 100.0 mg/kg/injection, schedule: Q01DX009 (ip), vehicle: saline): 100 % of control and 107 % of control | T/C [7]: 100 % of control and 102 % of control

Cc1cc(Cl)nc(Nc2ccccc2)n1
T/C (dose: 3.12 mg/kg/injection, schedule: Q01DX009 (ip), vehicle: DMSO): 100 % of control | T/C (dose: 6.25 mg/kg/injection, schedule: Q01DX009 (ip), vehicle: DMSO): 95 % of control and 100 % of control | T/C (dose: 6.25 mg/kg/injection, schedule: Q04DX003 (ip), vehicle: DMSO): 100 % of control | T/C (dose: 12.5 mg/kg/injection, schedule: Q01DX009 (ip), vehicle: DMSO): 100 % of control | T/C (dose: 12.5 mg/kg/injection, schedule: Q04DX003 (ip), vehicle: DMSO): 108 % of control | T/C (dose: 25.0 mg/kg/injection, schedule: Q01DX009 (ip), vehicle: DMSO): 95 % of control | T/C (dose: 25.0 mg/kg/injection, schedule: Q04DX003 (ip), vehicle: DMSO): 91 % of control

Cc1c(N)ncc2ccccc12
T/C (dose: 12.5 mg/kg/injection, schedule: Q04DX003 (ip), vehicle: saline): 115 % of control | T/C [8]: 108 % of control | T/C [6]: 99 % of control | T/C [7]: 118 % of control

Nc1nc(-c2cccc3ccccc23)cc2ccccc12
T/C (dose: 25.0 mg/kg/injection, schedule: Q01DX009 (ip), vehicle: saline with Tween-80): 115 % of control | T/C [9]: 119 % of control | T/C [10]: 151 % of control and 182 % of control | T/C [11]: 151 % of control

CCC12C=CCN3CCC4(c5cc(C(c6ccc(OC)cc6)c6cc7ccccc7[nH]6)c(OC)cc5N(C)C4C(O)(CO)C1O)C32 (configuration not stated)
T/C (dose: 2.0 mg/kg/injection, schedule: Q01DX009 (ip), vehicle: saline): 104 % of control | T/C (dose: 4.0 mg/kg/injection, schedule: Q01DX009 (ip), vehicle: saline): 98 % of control | T/C (dose: 8.0 mg/kg/injection, schedule: Q01DX009 (ip), vehicle: saline): 95 % of control | T/C (dose: 16.0 mg/kg/injection, schedule: Q01DX009 (ip), vehicle: saline): 98 % of control | T/C (dose: 32.0 mg/kg/injection, schedule: Q01DX009 (ip), vehicle: saline): 104 % of control

Cc1ccc(S(=O)(=O)CC([Se]C#N)c2ccccc2)cc1 (configuration not stated)
T/C [1]: 105 % of control | T/C [2]: 92 % of control | T/C [3]: 89 % of control

O=[N+]([O-])c1cccc(/C=C/c2ccc(S(=O)(=O)F)cc2)c1
T/C (dose: 50.0 mg/kg/injection, schedule: Q04DX003 (ip), vehicle: saline with Tween-80): 95 % of control | T/C [1]: 109 % of control | T/C [2]: 95 % of control

CC(=O)n1ccc(=O)[nH]c1=O
T/C [9]: 102 % of control | T/C [10]: 110 % of control | T/C [11]: 99 % of control

O=COc1ccc([N+](=O)[O-])cc1
T/C [8]: 95 % of control | T/C [6]: 100 % of control | T/C [7]: 100 % of control

CCOC(=O)C(C)C(O)(c1ccccc1)c1ccccc1 (configuration not stated)
T/C (dose: 100.0 mg/kg/injection, schedule: Q04DX003 (ip), vehicle: Klucel (hydroxypropylcellulose) (HPC)): 100 % of control | T/C (dose: 200.0 mg/kg/injection, schedule: Q04DX003 (ip), vehicle: Klucel (hydroxypropylcellulose) (HPC)): 104 % of control | T/C (dose: 400.0 mg/kg/injection, schedule: Q04DX003 (ip), vehicle: Klucel (hydroxypropylcellulose) (HPC)): 104 % of control

CO[C@H]1OC(=O)C=C2C1=C[C@H]1OC(=O)[C@@]3(C)CCC[C@@]2(C)[C@@H]13
T/C [4]: 100 % of control | T/C (dose: 25.0 mg/kg/injection, schedule: Q01DX009 (ip), vehicle: Klucel (hydroxypropylcellulose) (HPC)): 100 % of control

C/C(=C\C(=O)O)CC(=O)O
T/C (dose: 25.0 mg/kg/injection, schedule: Q01DX009 (ip), vehicle: water): 109 % of control | T/C (dose: 50.0 mg/kg/injection, schedule: Q01DX009 (ip), vehicle: water): 95 % of control | T/C (dose: 50.0 mg/kg/injection, schedule: Q04DX003 (ip), vehicle: water): 92 % of control | T/C (dose: 100.0 mg/kg/injection, schedule: Q01DX009 (ip), vehicle: water): 99 % of control | T/C (dose: 100.0 mg/kg/injection, schedule: Q04DX003 (ip), vehicle: water): 99 % of control and 108 % of control | T/C (dose: 200.0 mg/kg/injection, schedule: Q01DX009 (ip), vehicle: water): 101 % of control | T/C (dose: 200.0 mg/kg/injection, schedule: Q04DX003 (ip), vehicle: water): 104 % of control and 110 % of control

OC1(O)COC(c2ccccc2)OC1
T/C (dose: 100.0 mg/kg/injection, schedule: Q01DX001 (ip), vehicle: Klucel (hydroxypropylcellulose) (HPC)): 104 % of control | T/C (dose: 100.0 mg/kg/injection, schedule: Q01DX009 (ip), vehicle: Klucel (hydroxypropylcellulose) (HPC)): 120 % of control | T/C (dose: 200.0 mg/kg/injection, schedule: Q01DX001 (ip), vehicle: Klucel (hydroxypropylcellulose) (HPC)): 104 % of control | T/C (dose: 200.0 mg/kg/injection, schedule: Q01DX009 (ip), vehicle: Klucel (hydroxypropylcellulose) (HPC)): 110 % of control | T/C (dose: 400.0 mg/kg/injection, schedule: Q01DX001 (ip), vehicle: Klucel (hydroxypropylcellulose) (HPC)): 100 % of control | T/C (dose: 400.0 mg/kg/injection, schedule: Q01DX009 (ip), vehicle: Klucel (hydroxypropylcellulose) (HPC)): 115 % of control
